According to patent US20260001893A1, “SMALL MOLECULE MODULATORS OF STAT6” (Gilead Sciences, Inc., priority 2024, published 2026):

Legend:
[1] = test system: Eotaxin-3 (CCL26) release in human whole blood stimulated with IL-4; experiment: Human whole blood eotaxin-3 assay (IL-4 stimulated eotaxin-3 release); format: cell-based; conditions: Homo sapiens, 48 h, human whole blood stimulated with recombinant human IL-4, 48 h, geometric mean; for EC50: inhibition of eotaxin-3 release, given for test compounds with >80% Emax; for Emax: given for test compounds with <80% Emax
How it was run: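 Lithium-heparin human whole blood was preincubated with compound (4-fold serial dilution, 0.5% DMSO final) for 2 h at 37° C, then stimulated with recombinant human IL-4 at […] final for 48 h. Eotaxin-3 (CCL26) in the supernatant was measured by MSD immunoassay.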

[2] = molecular target: T1, Human STAT6 (truncated, aa122-658, with N-terminal His-tag) (Homo sapiens, UniProt P42226); experiment: Surface plasmon resonance (SPR) assay, binding to human STAT6; conditions: Biacore 8K, 25° C, immobilized human STAT6 on CM5 chip, multi-cycle kinetics; geometric mean
T1 construct: Human STAT6 (truncated, aa122-658, with N-terminal His-tag, expressed in insect cells); His-tag (N); made in house; host or cells: insect cells
T1 sequence (P42226 122-658): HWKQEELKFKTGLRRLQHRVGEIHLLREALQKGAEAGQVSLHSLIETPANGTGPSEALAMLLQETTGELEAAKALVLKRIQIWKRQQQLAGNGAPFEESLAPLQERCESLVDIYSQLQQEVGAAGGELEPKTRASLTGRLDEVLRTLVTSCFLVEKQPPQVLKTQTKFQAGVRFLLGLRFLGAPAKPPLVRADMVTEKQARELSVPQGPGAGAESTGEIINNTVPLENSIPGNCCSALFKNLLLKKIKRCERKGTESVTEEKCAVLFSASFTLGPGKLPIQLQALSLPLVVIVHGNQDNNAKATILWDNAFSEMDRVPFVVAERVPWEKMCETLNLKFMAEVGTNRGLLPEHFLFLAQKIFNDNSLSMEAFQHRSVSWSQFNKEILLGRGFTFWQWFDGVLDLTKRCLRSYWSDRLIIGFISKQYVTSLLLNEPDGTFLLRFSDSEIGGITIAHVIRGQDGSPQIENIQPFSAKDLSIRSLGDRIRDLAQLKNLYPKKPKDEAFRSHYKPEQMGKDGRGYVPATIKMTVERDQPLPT
How it was run: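 Truncated STAT6 (aa122-658, N-His, insect-cell expressed) was amine-coupled to a CM5 chip, and compounds were run as multi-cycle kinetics at 25 °C in PBS-P+ with 2% DMSO (60 s contact, up to 300 s dissociation). KD came from steady-state isotherms at a late report point, fitted with free and with fixed theoretical Rmax (1:1).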

| SMILES | EC50 [1] | Kd [2] | Emax [1] |
| --- | --- | --- | --- |
| CNc1ccn(-c2ccnc3c2cc([C@@H](C)N2CCC(c4ccc(C(=O)N(C)C)cc4)CC2)n3C)c(=O)c1 (single isomer, unassigned) [Example 1m73] | 26 nM | 12.1 nM |  |
| CNc1ccn(-c2ccnc3c2cc(CN2CC[C@H](c4ccc(C(=O)N(C)C)cc4)C(F)(F)C2)n3C)c(=O)c1 (stereo in doubt) [Example 1f1, N,N-Dimethyl-4-[(4R)-3,3-difluoro-1-[[1-methyl-4-[4-(methylamino)-2-oxo-1-pyridyl]pyrrolo[2,3-b]pyridin-2-yl]methyl]-4-piperidyl]-benzamide] | 98.5 nM | 15 nM |  |
| CN(C)C(=O)c1ccc(C2CCN(Cc3cc4c(-n5ccc6[nH]nc(C(F)(F)F)c6c5=O)ccnc4n3C)CC2)cc1 [Example 1ab3, N,N-Dimethyl-4-(1-((1-methyl-4-(4-oxo-3-(trifluoromethyl)-1,4-dihydro-5H-pyrazolo[4,3-c]pyridin-5-yl)-1H-pyrrolo[2,3-b]pyridin-2-yl)methyl)piperidin-4-yl)benzamide] | 193 nM | 20.4 nM |  |
| [2H]C([2H])([2H])N(C(=O)c1ccc(C2CCN(Cc3cc4c(-n5ccc(NC)cc5=O)ccnc4n3C)CC2)cc1)C([2H])([2H])[2H] [Example 1d4, 4-[1-[[1-Methyl-4-[4-(methylamino)-2-oxo-1-pyridyl]pyrrolo[2,3-b]pyridin-2-yl]methyl]-4-piperidyl]-N,N-bis(trideuteriomethyl)benzamide] | 221 nM | 20.9 nM |  |
| CN(C)C(=O)c1ccc(C2CCN(Cc3cc4c(-n5ccc(N)c(Br)c5=O)ccnc4n3C)CC2)cc1 [Example 1d20, 4-[1-[[4-(4-Amino-3-bromo-2-oxo-1-pyridyl)-1-methyl-pyrrolo[2,3-b]pyridin-2-yl]methyl]-4-piperidyl]-N,N-dimethyl-benzamide] | 99.3 nM | 16.1 nM |  |
| Cc1c(N)ccn(-c2ccnc3c2cc(CN2CCC(c4ccc(C(=O)N(C)C)cc4)CC2)n3C)c1=O [Example 1d21, 4-[1-[[4-(4-Amino-3-methyl-2-oxo-1-pyridyl)-1-methyl-pyrrolo[2,3-b]pyridin-2-yl]methyl]-4-piperidyl]-N,N-dimethyl-benzamide] | 95.8 nM | 21 nM |  |
| CN(C)C(=O)c1ccc(C2CCN(Cc3cc4c(-n5ccc6c(c5=O)CCN6)ccnc4n3C)CC2)cc1 [Example 1d23, N,N-Dimethyl-4-[1-[[1-methyl-4-(4-oxo-2,3-dihydro-1H-pyrrolo[3,2-c]pyridin-5-yl)pyrrolo[2,3-b]pyridin-2-yl]methyl]-4-piperidyl]benzamide] |  | 21.8 nM | 70 to 80% |
| CNc1ccn(-c2ccnc3c2cc(CN2CCC(c4ccc(C(=O)N(C)C)cc4C)CC2)n3C)c(=O)c1 [Example 1d25, N,N,3-Trimethyl-4-[1-[[1-methyl-4-[4-(methylamino)-2-oxo-1-pyridyl]pyrrolo[2,3-b]pyridin-2-yl]methyl]-4-piperidyl]benzamide] |  | 69.2 nM | 70 to 80% |
| CN(C)C(=O)c1ccc(C2CCN(Cc3cc4c(-n5ccc(N)c(C(F)(F)F)c5=O)ccnc4n3C)CC2)cc1 [Example 1d29, 4-[1-[[4-[4-Amino-2-oxo-3-(trifluoromethyl)-1-pyridyl]-1-methyl-pyrrolo[2,3-b]pyridin-2-yl]methyl]-4-piperidyl]-N,N-dimethyl-benzamide] | 588 nM | 28.6 nM |  |
| CN(C)C(=O)c1ccc(C2CCN(Cc3cc4c(-n5ccc(N)c(F)c5=O)ccnc4n3C)CC2)cc1 [Example 1d31, 4-[1-[[4-(4-Amino-3-fluoro-2-oxo-1-pyridyl)-1-methyl-pyrrolo[2,3-b]pyridin-2-yl]methyl]-4-piperidyl]-N,N-dimethyl-benzamide] | 100 nM | 22.3 nM |  |
| CNc1ccn(-c2ccnc3c2cc(CN2CCC(c4ccc(C(=O)N(C)C)cc4F)CC2)n3C)c(=O)c1 [Example 1d34, 3-Fluoro-N,N-dimethyl-4-[1-[[1-methyl-4-[4-(methylamino)-2-oxo-1-pyridyl]pyrrolo[2,3-b]pyridin-2-yl]methyl]-4-piperidyl]benzamide] | 29.8 nM | 14.2 nM |  |
| CNc1ccn(-c2ccnc3c2cc(CN2CCC(c4ccc(C(=O)N(C)C)cc4OC)CC2)n3C)c(=O)c1 [Example 1d36, 3-Methoxy-N,N-dimethyl-4-[1-[[1-methyl-4-[4-(methylamino)-2-oxo-1-pyridyl]pyrrolo[2,3-b]pyridin-2-yl]methyl]-4-piperidyl]benzamide] | 260 nM | 51.6 nM |  |
| CN(C)C(=O)c1ccc(C2CCN(Cc3cc4c(-n5ccc(N)c(COC(C)(C)C)c5=O)ccnc4n3C)CC2)cc1 [Example 1d39, 4-[1-[[4-[4-Amino-3-(tert-butoxymethyl)-2-oxo-1-pyridyl]-1-methyl-pyrrolo[2,3-b]pyridin-2-yl]methyl]-4-piperidyl]-N,N-dimethyl-benzamide] | 961 nM | 98.7 nM |  |
| CN(C)C(=O)c1ccc(C2CCN(Cc3cc4c(-n5ccc6[nH]ncc6c5=O)ccnc4n3C)CC2)cc1 [Example 1j27, N,N-Dimethyl-4-[1-[[1-methyl-4-(4-oxo-1H-pyrazolo[4,3-c]pyridin-5-yl)pyrrolo[2,3-b]pyridin-2-yl]methyl]-4-piperidyl]benzamide] | 44.7 nM | 9.79 nM |  |

Further lines, with some results ahead:

| EC50 [1] | Kd [2] | SMILES | Emax [1] |
| --- | --- | --- | --- |
|  | 37.3 nM | CN(C)C(=O)c1ccc(C2CCN(Cc3cc4c(-n5ccc(N)nc5=O)ccnc4n3C)CC2)cc1 [Example 1ab6, 4-(1-((4-(4-Amino-2-oxopyrimidin-1 (2H)-yl)-1-methyl-1H-pyrrolo[2,3-b]pyridin-2-yl)methyl)piperidin-4-yl)-N,N-dimethylbenzamide] | 70 to 80% |
|  | 75.4 nM | CN(C)C(=O)c1ccc(C2CCN(Cc3cc4c(-n5cc(F)c(N)nc5=O)ccnc4n3C)CC2)cc1 [Example 1ac2, 4-(1-((4-(4-Amino-5-fluoro-2-oxopyrimidin-1 (2H)-yl)-1-methyl-1H-pyrrolo[2,3-b]pyridin-2-yl)methyl)piperidin-4-yl)-N,N-dimethylbenzamide] | 70 to 80% |
| 119 nM | 12.5 nM | CN(C)C(=O)c1ccc(C2CCN(Cc3cc4c(-n5ccc(N)cc5=O)ccnc4n3C)CC2)cc1 [Example 1d1, 4-[1-[[4-(4-Amino-2-oxo-1-pyridyl)-1-methyl-pyrrolo[2,3-b]pyridin-2-yl]methyl]-4-piperidyl]-N,N-dimethyl-benzamide] |  |
| 84.1 nM | 18.2 nM | CNc1ccn(-c2ccnc3c2cc(CN2CCC(c4ccc(C(=O)N(C)C)cc4)CC2)n3C)c(=O)c1 [Example 1d3, N,N-Dimethyl-4-[1-[[1-methyl-4-[4-(methylamino)-2-oxo-1-pyridyl]pyrrolo[2,3-b]pyridin-2-yl]methyl]-4-piperidyl]benzamide] |  |
| 257 nM | 32.9 nM | CN(C)C(=O)c1ccc(C2CCN(Cc3cc4c(-n5cc(F)c(N)cc5=O)ccnc4n3C)CC2)cc1 [Example 1d19, 4-[1-[[4-(4-Amino-5-fluoro-2-oxo-1-pyridyl)-1-methyl-pyrrolo[2,3-b]pyridin-2-yl]methyl]-4-piperidyl]-N,N-dimethyl-benzamide] |  |
| 25.1 nM | 16 nM | CNc1ccn(-c2ccnc3c2cc(CN2CCC(c4c(C)cc(C(=O)N(C)C)cc4C)CC2)n3C)c(=O)c1 [Example 1d27, N,N,3,5-Tetramethyl-4-[1-[[1-methyl-4-[4-(methylamino)-2-oxo-1-pyridyl]pyrrolo[2,3-b]pyridin-2-yl]methyl]-4-piperidyl]benzamide] |  |
| 88.4 nM | 25 nM | COCc1c(N)ccn(-c2ccnc3c2cc(CN2CCC(c4ccc(C(=O)N(C)C)cc4)CC2)n3C)c1=O [Example 1d30, 4-[1-[[4-[4-Amino-3-(methoxymethyl)-2-oxo-1-pyridyl]-1-methyl-pyrrolo[2,3-b]pyridin-2-yl]methyl]-4-piperidyl]-N,N-dimethyl-benzamide] |  |
| 957 nM | 134 nM | CNc1ccn(-c2ccnc3c2cc(CN2CCC(c4ccc(C(=O)N(C)C)cc4)CC2=O)n3C)c(=O)c1 (stereo not shown) [Example 1f8, N,N-Dimethyl-4-[1-[[1-methyl-4-[4-(methylamino)-2-oxo-1-pyridyl]pyrrolo[2,3-b]pyridin-2-yl]methyl]-2-oxo-4-piperidyl]benzamide] |  |
| 74.7 nM | 16.6 nM | CNc1ccn(-c2ccnc3c2cc(CN2CCN(c4ccc(C(=O)N(C)C)cc4C)CC2)n3C)c(=O)c1 [Example 1m6, N,N,3-Trimethyl-4-(4-((1-methyl-4-(4-(methylamino)-2-oxopyridin-1 (2H)-yl)-1H-pyrrolo[2,3-b]pyridin-2-yl)methyl)piperazin-1-yl)benzamide] |  |
